From paper PMC11378297, “Discovery and Profiling of New Multimodal Phenylglycinamide Derivatives as Potent Antiseizure and Antinociceptive Drug Candidates” (ACS Chemical Neuroscience, 2024)
Like-named read-outs stand apart in the source and are kept apart here.

What was measured:
[1] = pharmacokinetic study in mice (serum and brain, non-compartmental analysis); format: in vivo, mouse; conditions: for Kp / MRT / Tmax / half-life / k el / CL/F / Vd/F: male, CD-1, mouse; for Kp: brain and serum, read-out: Brain-to-serum AUC ratio; for half-life: read-out: t1/2 λz; for k el: read-out: λz (converted); for Vd/F: read-out: Vz/F
Description: They were housed in conditions of constant temperature with the 12:12 h light–dark cycle and free access to food and water. […] Moreover, the compound was dissolved in a mixture of DMSO/PEG400/water (1:4:5, v/v/v) and administered p.o. at a dose of 25 mg/kg. […] After allowing the blood to coagulate for 20 min at room temperature, the serum was separated using a 5000g Eppendorf miniSpin centrifuge (Germany) for 10 min. Samples were kept at −80 °C until they were analyzed. The First Ethical Committee on Animal Experimentation in Kraków granted approval for all animal treatments (license no. 270/2019). Concentrations of compound (R)-32 in mouse serum and brain tissue were measured using a liquid chromatography tandem mass spectrometry method (LC-MS/MS). Mouse brains were homogenized in distilled water at the ratio of 1:4 (w/v) using the ULTRA-TURRAX T10 basic tissue homogenizer (IKA, Germany). […] Samples were shaken for 10 min (IKA Vibrax VXR, Germany) and then centrifuged for 5 min at the speed of 8000g (Eppendorf miniSpin centrifuge, Germany). Supernatants were transferred into the autosampler vials, and a sample volume of 1 μL was injected into the LC-MS/MS system. Liquid chromatography was performed on an Exion LC AC HPLC system (Sciex, USA) with a Hypersil Gold C18 analytical column (3 × 50 mm, 5 μm, Thermo Scientific, USA). […] The initial mobile phase composition was 95% B and 5% A for the first 2 min with a linear gradient to 5% B in the next 2 min and then isocratic mode for 2 min with the following rapid change back to 95% B in 0.1 min. The remaining time of elution was set at 95% B. The whole HPLC operation lasted 10 min, and the flow rate was set to 0.4 mL/min. A QTRAP 4500 mass spectrometer (Sciex, USA) equipped with an ESI source, was used for detection. The mass spectrometric parameters were optimized to obtain maximum sensitivity at unit resolution. The ion source temperature was maintained at 450 °C, and the ion spray voltage was set to 5500 V. The CUR was set to 40 psi and the collision gas (CAD) to medium. The MRM experiments were conducted in the positive ion mode by monitoring the precursor to product ion transitions from m/z 422 to 247 (CE = 25 eV) and from m/z 422 to 106 (CE = 57 eV) for compound (R)-32 and from m/z 436 to 207 (CE = 42 eV) for IS. The working solutions for (R)-32 were created in methanol, while the stock solution was made in DMSO at a concentration of 1 mg/mL. […] Two distinct calibration curves were created for serum samples, one for greater concentrations and one for lower amounts. The precipitating agent was also diluted 10 times with calibrators and samples from the highest concentration range. […] The limits used for quantification were 0.001 to 5, 0.1 to 20 μg/mL for serum, and 0.005 to 25 μg/g for brain tissue. Samples with (R)-32 concentrations higher than the quantitative upper limit were 10-fold diluted using the blank matrix, which is either serum or brain homogenate. The method’s precision and accuracy fell within the bounds established by the FDA’s standards for the verification of bioanalytical techniques. During the normal analysis of the samples, no substantial matrix effect was identified, and no stability issues were encountered. The Analyst program version 1.7 was utilized for both data collecting and analysis. Noncompartmental analysis was used to estimate pharmacokinetic parameters of (R)-32 in serum and brain tissue. The area under the mean concentration versus time curve extrapolated to infinity (AUC0-inf) was estimated using the linear trapezoidal rule by combining trapezoid calculation of AUC0–t and the area extrapolated to infinity. The MRT was calculated from AUMC0-inf/AUC0-inf, where AUMC0-inf was estimated by calculation of the total area under the first-moment curve. The terminal slope (λz) was calculated by log–linear regression of the drug concentration versus time data in the terminal phase and the terminal half-life (t0.5) was calculated as 0.693/λz. […]

SMILES: CC(=O)N[C@@H](C(=O)N1CCN(c2cccc(C(F)(F)F)c2)CC1)c1ccccc1 [(R)-31, (R)-N-(2-Oxo-1-phenyl-2-(4-(3-(trifluoromethyl)phenyl)piperazin-1-yl)ethyl)acetamide]
- melting point: 112.9 to 113.5 °C

SMILES: CC(=O)N[C@@H](C(=O)N1CCN(c2cccc(OC(F)(F)F)c2)CC1)c1ccccc1 [(R)-32, (R)-N-(2-Oxo-1-phenyl-2-(4-(3-(trifluoromethoxy)phenyl)piperazin-1-yl)ethyl)acetamide]
- MRT after p.o. dosing in comparison to i.p. administration [1]: ~4 fold
- ratios of Cmax and AUC in serum after p.o. dosing compared to i.p. administration of the same dose ([1]; 25 mg/kg): lower than 0.5
- AUC0–∞ ([1]; brain, 25 mg/kg i.p.): 274,802.60 ng·min/mL(g)
- Cmax ([1]; brain, 25 mg/kg i.p.): 8266.67 ng/mL(g)
- AUC0–∞ ([1]; brain, 25 mg/kg p.o.): 156,252.29 ng·min/mL(g)
- Cmax ([1]; brain, 25 mg/kg p.o.): 1870.33 ng/mL(g)
- AUC0–∞ ([1]; brain, 50 mg/kg i.p.): 689,733.29 ng·min/mL(g)
- Cmax ([1]; brain, 50 mg/kg i.p.): 21,475.00 ng/mL(g)
- Kp ([1]; intraperitoneal, 50 mg/kg): 1.5
- Kp ([1]; ip, 25 mg/kg i.p.): 1.2
- Kp ([1]; po, 25 mg/kg p.o.): 1.3
- MRT ([1]; ip, brain, 25 mg/kg i.p.): 45.5 min
- Tmax ([1]; ip, brain, 25 mg/kg i.p.): 15 min
- half-life ([1]; ip, brain, 25 mg/kg i.p.): 80.5 min
- k el ([1]; ip, brain, 25 mg/kg i.p.): 0.00015 s⁻¹
- MRT ([1]; ip, brain, 50 mg/kg i.p.): 47.3 min
- Tmax ([1]; ip, brain, 50 mg/kg i.p.): 15 min
- half-life ([1]; ip, brain, 50 mg/kg i.p.): 62.3 min
- k el ([1]; ip, brain, 50 mg/kg i.p.): 0.000183 s⁻¹
- CL/F ([1]; ip, serum, 25 mg/kg i.p.): 110 mL/min/kg
- MRT ([1]; ip, serum, 25 mg/kg i.p.): 42.3 min
- Tmax ([1]; ip, serum, 25 mg/kg i.p.): 15 min
- Vd/F ([1]; ip, serum, 25 mg/kg i.p.): 12.3 L/kg
- half-life ([1]; ip, serum, 25 mg/kg i.p.): 77.5 min
- k el ([1]; ip, serum, 25 mg/kg i.p.): 0.00015 s⁻¹
- CL/F ([1]; ip, serum, 50 mg/kg i.p.): 108 mL/min/kg
- MRT ([1]; ip, serum, 50 mg/kg i.p.): 33.6 min
- Tmax ([1]; ip, serum, 50 mg/kg i.p.): 15 min
- Vd/F ([1]; ip, serum, 50 mg/kg i.p.): 9.97 L/kg
- half-life ([1]; ip, serum, 50 mg/kg i.p.): 64.3 min
- k el ([1]; ip, serum, 50 mg/kg i.p.): 0.000183 s⁻¹
- MRT ([1]; po, brain, 25 mg/kg p.o.): 151 min
- Tmax ([1]; po, brain, 25 mg/kg p.o.): 5 min
- half-life ([1]; po, brain, 25 mg/kg p.o.): 133 min
- k el ([1]; po, brain, 25 mg/kg p.o.): 8.33e-05 s⁻¹
- CL/F ([1]; po, serum, 25 mg/kg p.o.): 210 mL/min/kg
- MRT ([1]; po, serum, 25 mg/kg p.o.): 156 min
- Tmax ([1]; po, serum, 25 mg/kg p.o.): 5 min
- Vd/F ([1]; po, serum, 25 mg/kg p.o.): 38.5 L/kg
- half-life ([1]; po, serum, 25 mg/kg p.o.): 127 min
- k el ([1]; po, serum, 25 mg/kg p.o.): 8.33e-05 s⁻¹
- Tmax ([1]; serum, other: both i.p. and p.o., after both i.p. and p.o. dosing): ≤ 15 min
- AUC0–∞ ([1]; serum, 25 mg/kg i.p.): 228,063.48 ng·min/mL(g)
- Cmax ([1]; serum, 25 mg/kg i.p.): 7613.33 ng/mL(g)
- AUC0–∞ ([1]; serum, 25 mg/kg p.o.): 118,998.11 ng·min/mL(g)
- Cmax ([1]; serum, 25 mg/kg p.o.): 1266.00 ng/mL(g)
- AUC0–∞ ([1]; serum, 50 mg/kg i.p.): 464,877.54 ng·min/mL(g)
- Cmax ([1]; serum, 50 mg/kg i.p.): 15,900.00 ng/mL(g)
